Broadly, the melting point is the temperature of the solid-liquid transition.

The target of one series is sigma-1 site (Homo sapiens, UniProt Q99720). The settings on record: statement in words, background section; cited from earlier work.
The next series deals with sigma-2 site (Homo sapiens, UniProt Q5BJF2). The settings on record: statement in words, background section; cited from earlier work.
Sequence of sigma-2 site (Q5BJF2 whole entry): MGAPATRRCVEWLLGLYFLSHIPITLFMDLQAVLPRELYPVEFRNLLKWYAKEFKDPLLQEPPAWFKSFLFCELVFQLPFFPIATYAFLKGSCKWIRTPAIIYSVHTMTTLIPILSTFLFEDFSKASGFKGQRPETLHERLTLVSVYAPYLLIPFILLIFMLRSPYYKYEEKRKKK

Sequence of sigma-1 site (Q99720 whole entry): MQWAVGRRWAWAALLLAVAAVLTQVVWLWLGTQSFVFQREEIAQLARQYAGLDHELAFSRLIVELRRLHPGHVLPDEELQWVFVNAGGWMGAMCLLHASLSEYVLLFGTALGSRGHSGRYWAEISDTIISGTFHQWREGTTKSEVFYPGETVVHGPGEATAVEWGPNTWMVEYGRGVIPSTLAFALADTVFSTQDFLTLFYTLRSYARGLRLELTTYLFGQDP

As for SKF 10047, the “affinity for the sigma-1 site” value on sigma-1 site is “nanomolar”. Moreover, the “affinity for the sigma-2 site” value on sigma-2 site is listed as “micromolar”.

`Cn1ccc2c1CCCC2CCN1CCC(O)(c2ccc(Cl)cc2)CC1.O=C(O)C(=O)O` (stereo not shown) showed a melting point of 154 to 155 °C.

`Cn1ccc2c1CCCC2CCN1CCC(c2ccccc2)CC1.O=C(O)C(=O)O` (stereo not shown) gave a melting point of 86 to 90 °C.

(Values after patent US8481567B2, “Sigma receptor compounds” (Laboratorios del Dr. Esteve, S.A., priority 2006, dated 2013).)
